In brackets after ≈: the same amount, converted by molar mass. Where a name gives a salt, the structure may show the parent alone. Read-outs that look alike come from different tables or passages of the source.
What was measured:
[1] = tested on: S. Aureus SK 23390; assay: MIC in vitro, S. Aureus SK 23390 (G+); assay type: cell-based; details: Staphylococcus aureus
[2] = tested on: Pseudo Aeruginosa HH 63; assay: MIC in vitro, Pseudo Aeruginosa HH 63 (G-); assay type: cell-based
[3] = tested on: Entero. aerogenes ATCC 13048; assay: MIC in vitro, Entero. aerogenes ATCC 13048 (G-); assay type: cell-based; details: Klebsiella aerogenes, ATCC13048
[4] = tested on: E. coli HH 33779; assay: MIC in vitro, E. coli HH 33779 (G-); assay type: cell-based; details: Escherichia coli, HH33779
[5] = tested on: Entero. cloacae HH 31254; assay: MIC in vitro, Entero. cloacae HH 31254 (G-); assay type: cell-based; details: Enterobacter cloacae, HH31254
[6] = tested on: Strep. Faecalis HH 34358; assay: MIC in vitro, Strep. Faecalis HH 34358 (G+); assay type: cell-based; details: Enterococcus faecalis
[7] = tested on: S. Aureus HH 127; assay: MIC in vitro, S. Aureus HH 127 (G+); assay type: cell-based; details: Staphylococcus aureus
[8] = tested on: Kleb. pneumoniae SK 1200; assay: MIC in vitro, Kleb. pneumoniae SK 1200 (G-); assay type: cell-based; details: Klebsiella pneumoniae, SK1200
[9] = tested on: P. Mirabils PM 444; assay: MIC in vitro, P. Mirabils PM 444 (G-); assay type: cell-based
[10] = tested on: E. coli SK 12140; assay: MIC in vitro, E. coli SK 12140 (G-); assay type: cell-based; details: Escherichia coli, SK12140
[11] = tested on: Proteus morgani 179; assay: MIC in vitro, Proteus morgani 179 (G-); assay type: cell-based
[12] = tested on: Serratia Marcescens ATCC 13880; assay: MIC in vitro, Serratia Marcescens ATCC 13880 (G-); assay type: cell-based; details: ATCC13880
[13] = tested on: Kleb. pneumoniae SK 2400; assay: MIC in vitro, Kleb. pneumoniae SK 2400 (G-); assay type: cell-based; details: Klebsiella pneumoniae, SK2400
[14] = tested on: S. villaluz SK 70390; assay: MIC in vitro, S. villaluz SK 70390 (G+); assay type: cell-based
[15] = tested on: Salmonella ATCC 12176; assay: MIC in vitro, Salmonella ATCC 12176 (G-); assay type: cell-based; details: ATCC12176
[16] = tested on: E. coli 12140; assay: mouse protection against E. coli 12140; assay type: in vivo; details: Escherichia coli, sc, S.C.
From the text: For comparison with known used compounds, data for cefuroxime, cefazolin and cephalothin are included.

[17] = in vitro, G+, S. Aureus SK 23390, read-out: MIC
[18] = in vitro, G-, Entero. aerogenes ATCC 13048, read-out: MIC
[19] = in vitro, G-, Entero. cloacae HH 31254, read-out: MIC
[20] = in vitro, G+, Strep. Faecalis HH 34358, read-out: MIC
[21] = in vitro, G+, S. Aureus HH 127, read-out: MIC
[22] = in vitro, G-, Kleb. pneumoniae SK 1200, read-out: MIC
[23] = in vitro, G-, Proteus morgani 179, read-out: MIC
[24] = in vitro, G-, Kleb. pneumoniae SK 2400, read-out: MIC
[25] = in vitro, G+, S. villaluz SK 70390, read-out: MIC
[26] = in vitro, G-, Salmonella ATCC 12176, read-out: MIC

| Structure (SMILES) | MIC [1, 17] | MIC [3, 18] | MIC [5, 19] | MIC [6, 20] | MIC [7, 21] | MIC [8, 22] | MIC [9] | MIC [10] | MIC [11, 23] | MIC [13, 24] | MIC [14, 25] | MIC [15, 26] | ED50 [16] | MIC [1] | MIC [2] | MIC [4] | MIC [7] | MIC [8] | MIC ([12]; Serratia marcescens) | MIC [13] | also measured |
| --- | --- | --- | --- | --- | --- | --- | --- | --- | --- | --- | --- | --- | --- | --- | --- | --- | --- | --- | --- | --- | --- |
| Cc1nnc(SCC2=C(C(=O)O)N3C(=O)[C@@H](NC(=O)Cn4cnnn4)[C@H]3SC2)s1 [Cefazolin, cefazolin] | 0.2 µg/mL (≈ 0.44 µM) | 1.6 µg/mL (≈ 3.52 µM) | 0.8 µg/mL (≈ 1.76 µM) | 6.3 µg/mL (≈ 13.9 µM) | 0.4 µg/mL (≈ 0.88 µM) | 0.8 µg/mL (≈ 1.76 µM) | 3.1 µg/mL (≈ 6.82 µM) | 0.8 µg/mL (≈ 1.76 µM) | 100 µg/mL (≈ 220 µM) | 0.8 µg/mL (≈ 1.76 µM) | 200 µg/mL (≈ 440 µM) | 0.8 µg/mL (≈ 1.76 µM) | 6.25 mg/kg | – | – | – | – | – | – | – | MIC ([2]; in vitro, G-, Pseudo Aeruginosa HH 63, read-out: MIC): > 200 µg/mL; MIC ([4]; in vitro, G-, E. coli HH 33779, read-out: MIC): 0.8 µg/mL (≈ 1.76 µM); MIC ([12]; in vitro, G-, Serratia Marcescens ATCC 13880, read-out: MIC): 100 µg/mL (≈ 220 µM) |
| CO/N=C(\C(=O)N[C@@H]1C(=O)N2C(C(=O)O)=C(COC(N)=O)CS[C@H]12)c1ccco1 [Cefuroxim, cefuroxime] | – | 6.3 µg/mL (≈ 14.8 µM) | – | 2.5 µg/mL (≈ 5.89 µM) | – | – | 1.6 µg/mL (≈ 3.77 µM) | 6.3 µg/mL (≈ 14.8 µM) | 50 µg/mL (≈ 118 µM) | – | – | – | 6.25 mg/kg | 1.6 µg/mL (≈ 3.77 µM) | > 200 µg/mL | 6.3 µg/mL (≈ 14.8 µM) | 0.8 µg/mL (≈ 1.89 µM) | 3.1 µg/mL (≈ 7.3 µM) | 12.5 µg/mL (≈ 29.5 µM) | 3.1 µg/mL (≈ 7.3 µM) | MIC [5]: 3.1 µg/mL (≈ 7.3 µM); MIC [14]: > 200 µg/mL; MIC ([15]; Salmonella): 3.1 µg/mL (≈ 7.3 µM) |
| CC(=O)OCC1=C(C(=O)O)N2C(=O)[C@@H](NC(=O)Cc3cccs3)[C@H]2SC1 [Cephalothin, cephalothin] | 0.2 µg/mL (≈ 0.504 µM) | – | 6.3 µg/mL (≈ 15.9 µM) | – | 0.2 µg/mL (≈ 0.504 µM) | – | 3.1 µg/mL (≈ 7.82 µM) | 3.1 µg/mL (≈ 7.82 µM) | – | – | 50 µg/mL (≈ 126 µM) | 0.8 µg/mL (≈ 2.02 µM) | – | – | > 200 µg/mL | 6.3 µg/mL (≈ 15.9 µM) | – | 1.6 µg/mL (≈ 4.04 µM) | > 200 µg/mL | 3.1 µg/mL (≈ 7.82 µM) | MIC [3]: 12.5 µg/mL (≈ 31.5 µM); MIC [6]: 12.5 µg/mL (≈ 31.5 µM); MIC [11]: > 200 µg/mL |
| CO/N=C(\C(=O)N[C@@H]1C(=O)N2C(C(=O)O)=C(CSc3nnnn3CCC(=O)O)CS[C@H]12)c1ccco1 [Example 1, 7[Syn-2-methoxyimino-2-α-furylacetamido]-3-[1-(2-carboxyethyl)tetrazol-5-ylthiomethyl]-3-cephem-4-carboxylic acid, disodium salt] | – | – | 1.6 µg/mL | – | – | 0.8 µg/mL | 0.2 µg/mL | – | 1.6 µg/mL | 0.8 µg/mL | > 200 µg/mL | 0.8 µg/mL | 4.4 mg/kg | 1.6 µg/mL | 200 µg/mL | 3.1 µg/mL | 3.1 µg/mL | – | 3.1 µg/mL | – | MIC [3]: 3.1 µg/mL; MIC [6]: 50 µg/mL; MIC ([10]; in vitro, G-, E. coli SK 12140, read-out: MIC): 1.6 µg/mL |

Source: patent publication US4278670A, “7-Alpha-oxyiminoacylcephalosporins” (SmithKline Corporation, priority 1976, dated 1981)
